In PubChem BioAssay (NCI):
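Cultured in 96-well plates, cells were exposed to test compound for 48 hours across five concentrations. GI50: concentration for 50% inhibition of growth. TGI: total growth inhibition.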

Legend:
Experiment in all cases: NCI-60 cell line screen, 48 h
NCI-H23 lung = tested on: NCI-H23 lung
IGROV1 ovarian = tested on: IGROV1 ovarian
NCI-H522 lung = tested on: NCI-H522 lung
HT29 colon = tested on: HT29 colon
COLO 205 colon = tested on: COLO 205 colon
U251 CNS = tested on: U251 CNS
MCF7 breast = tested on: MCF7 breast
UACC-257 melanoma = tested on: UACC-257 melanoma
SNB-19 CNS = tested on: SNB-19 CNS
NCI-H460 lung = tested on: NCI-H460 lung

## Cn1cc(S(=O)(=O)N2CCC3=Cc4c(cnn4-c4ccc(F)cc4)C[C@]3(C(=O)c3cc(C(F)(F)F)ccn3)C2)cn1
NCI-H23 lung
  GI50: > 100 µM
  TGI: > 100 µM
IGROV1 ovarian
  GI50: 23.3 µM
  TGI: > 100 µM
NCI-H522 lung
  GI50: > 100 µM
  TGI: > 100 µM
HT29 colon
  GI50: 89.7 µM
  TGI: > 100 µM
COLO 205 colon
  GI50: > 100 µM
  TGI: > 100 µM
U251 CNS
  GI50: > 100 µM
  TGI: > 100 µM
MCF7 breast
  GI50: 6.34 µM
  TGI: > 100 µM
UACC-257 melanoma
  GI50: > 100 µM
  TGI: > 100 µM
SNB-19 CNS
  GI50: > 100 µM
  TGI: > 100 µM
NCI-H460 lung
  GI50: > 100 µM
  TGI: > 100 µM

## NCCCn1c2c(c3ccccc3c1=O)C(=O)c1ccccc1-2
NCI-H23 lung
  TGI: 0.977 µM
IGROV1 ovarian
  GI50: 0.34 µM
  TGI: > 64.4 µM
NCI-H522 lung
  GI50: 0.564 µM
  TGI: 13.4 µM
HT29 colon
  GI50: 0.128 µM
  TGI: 15.4 µM
COLO 205 colon
  GI50: 0.105 µM
  TGI: 2.88 µM
U251 CNS
  GI50: 0.0888 µM
  TGI: 1.42 µM
MCF7 breast
  GI50: 0.0728 µM
  TGI: 18 µM
UACC-257 melanoma
  GI50: 0.544 µM
  TGI: 2.19 µM
SNB-19 CNS
  GI50: 0.0857 µM
  TGI: 3.43 µM
NCI-H460 lung
  GI50: 0.0647 µM
  TGI: 9.22 µM

## COc1cc(OC)c2sc(-c3ccc(-n4cncc4-c4cc(OC)c(OC)c(OC)c4)cc3)nc2c1
NCI-H23 lung
  GI50: 6.15 µM
  TGI: > 100 µM
IGROV1 ovarian
  GI50: 5.87 µM
  TGI: > 100 µM
NCI-H522 lung
  GI50: 3.27 µM
  TGI: > 100 µM
HT29 colon
  GI50: 4.88 µM
  TGI: > 100 µM
COLO 205 colon
  GI50: 4.51 µM
  TGI: > 100 µM
U251 CNS
  GI50: 4.15 µM
  TGI: > 100 µM
MCF7 breast
  GI50: 3.88 µM
  TGI: > 100 µM
UACC-257 melanoma
  GI50: > 100 µM
  TGI: > 100 µM
SNB-19 CNS
  GI50: > 100 µM
  TGI: > 100 µM
NCI-H460 lung
  GI50: 4.67 µM
  TGI: > 100 µM

## COc1ccc(-c2ccc(NNC(=O)c3ccc(F)cc3)nn2)cc1OC
NCI-H23 lung
  GI50: > 100 µM
  TGI: > 100 µM
IGROV1 ovarian
  GI50: 63.3 µM
  TGI: > 100 µM
NCI-H522 lung
  GI50: 54.3 µM
  TGI: > 100 µM
HT29 colon
  GI50: > 100 µM
  TGI: > 100 µM
COLO 205 colon
  GI50: > 100 µM
  TGI: > 100 µM
U251 CNS
  GI50: > 100 µM
  TGI: > 100 µM
MCF7 breast
  GI50: 93.4 µM
  TGI: > 100 µM
UACC-257 melanoma
  GI50: > 100 µM
  TGI: > 100 µM
SNB-19 CNS
  GI50: > 100 µM
  TGI: > 100 µM
NCI-H460 lung
  GI50: > 100 µM
  TGI: > 100 µM

## c1ccc2c(c1)c1ccccc1c1ccccc21
NCI-H23 lung
  GI50: > 100 µM
  TGI: > 100 µM
IGROV1 ovarian
  GI50: > 100 µM
  TGI: > 100 µM
NCI-H522 lung
  GI50: > 100 µM
  TGI: > 100 µM
HT29 colon
  GI50: > 100 µM
  TGI: > 100 µM
COLO 205 colon
  GI50: > 100 µM
  TGI: > 100 µM
U251 CNS
  GI50: > 100 µM
  TGI: > 100 µM
MCF7 breast
  GI50: > 100 µM
  TGI: > 100 µM
UACC-257 melanoma
  GI50: > 100 µM
  TGI: > 100 µM
SNB-19 CNS
  GI50: > 100 µM
  TGI: > 100 µM
NCI-H460 lung
  GI50: > 100 µM
  TGI: > 100 µM

## COc1cc(/C=C2\CCC/C(=C\c3ccc(OCC4CO4)c(OC)c3)C2=O)ccc1OCC1CO1 (stereo not drawn)
NCI-H23 lung
  GI50: 2.8 µM
  TGI: 9.71 µM
IGROV1 ovarian
  GI50: 2.87 µM
  TGI: 7.07 µM
NCI-H522 lung
  GI50: 2.47 µM
  TGI: 6 µM
HT29 colon
  GI50: 2.25 µM
  TGI: 4.62 µM
COLO 205 colon
  GI50: 2 µM
  TGI: 3.54 µM
U251 CNS
  GI50: 2.11 µM
  TGI: 5.27 µM
MCF7 breast
  GI50: 2.02 µM
  TGI: 7.32 µM
UACC-257 melanoma
  GI50: 1.82 µM
  TGI: 3.91 µM
SNB-19 CNS
  GI50: 4.73 µM
  TGI: 76.4 µM
NCI-H460 lung
  GI50: 2.37 µM
  TGI: 5.59 µM

## CC(Cl)CN1c2ccccc2Sc2ccc(Cl)cc21 (stereo not drawn)
NCI-H23 lung
  TGI: > 10 µM
IGROV1 ovarian
  TGI: > 10 µM
NCI-H522 lung
  TGI: > 10 µM
HT29 colon
  TGI: > 10 µM
COLO 205 colon
  TGI: > 10 µM
U251 CNS
  TGI: > 10 µM
MCF7 breast
  TGI: > 10 µM
UACC-257 melanoma
  TGI: > 10 µM
SNB-19 CNS
  TGI: > 10 µM
NCI-H460 lung
  TGI: > 10 µM

## Cc1sc2c(c1C)C(c1ccc(Cl)cc1)=N[C@@H](CC(=O)Nc1ccc(OCCOCCOCCOCCNc3cccc4c3C(=O)N(C3CCC(=O)NC3=O)C4=O)cc1)c1nnc(C)n1-2 (stereo partly drawn)
NCI-H23 lung
  GI50: 3.75 µM
  TGI: > 100 µM
IGROV1 ovarian
  TGI: > 100 µM
NCI-H522 lung
  GI50: 0.518 µM
  TGI: > 100 µM
HT29 colon
  GI50: 0.314 µM
  TGI: > 100 µM
COLO 205 colon
  GI50: < 0.0279 µM
  TGI: > 82.4 µM
U251 CNS
  GI50: 0.476 µM
  TGI: > 100 µM
MCF7 breast
  GI50: < 0.0166 µM
  TGI: > 100 µM
UACC-257 melanoma
  GI50: 10.6 µM
  TGI: > 100 µM
SNB-19 CNS
  GI50: < 0.0301 µM
  TGI: > 100 µM
NCI-H460 lung
  GI50: 2.13 µM
  TGI: > 100 µM

## Oc1ccc(N=Nc2nccs2)c(O)c1
NCI-H23 lung
  GI50: 5.36 µM
  TGI: 28.7 µM
IGROV1 ovarian
  GI50: 4.14 µM
  TGI: 15.2 µM
NCI-H522 lung
  GI50: 3.5 µM
  TGI: 13.6 µM
HT29 colon
  GI50: 3.61 µM
  TGI: 23.1 µM
COLO 205 colon
  GI50: 3.21 µM
  TGI: 12 µM
U251 CNS
  GI50: 4.5 µM
  TGI: 35.2 µM
MCF7 breast
  GI50: 3.06 µM
  TGI: 15.1 µM
UACC-257 melanoma
  GI50: 16.4 µM
  TGI: 60.1 µM
SNB-19 CNS
  GI50: 11.5 µM
  TGI: 53.1 µM
NCI-H460 lung
  GI50: 3.67 µM
  TGI: 17.9 µM

## CN1C(NNC(=O)c2cccnc2)=NS(=O)(=O)c2cc(Cl)ccc21
NCI-H23 lung
  GI50: > 100 µM
  TGI: > 100 µM
IGROV1 ovarian
  GI50: > 100 µM
  TGI: > 100 µM
NCI-H522 lung
  GI50: > 100 µM
  TGI: > 100 µM
HT29 colon
  GI50: > 100 µM
  TGI: > 100 µM
COLO 205 colon
  GI50: > 100 µM
  TGI: > 100 µM
U251 CNS
  GI50: > 100 µM
  TGI: > 100 µM
MCF7 breast
  GI50: > 100 µM
  TGI: > 100 µM
UACC-257 melanoma
  GI50: > 100 µM
  TGI: > 100 µM
SNB-19 CNS
  GI50: > 100 µM
  TGI: > 100 µM
NCI-H460 lung
  GI50: > 100 µM
  TGI: > 100 µM

## COc1ccc(-c2nn(-c3cccc(Cl)c3)cc2-c2nc(N)[nH]c(=O)c2C#N)cc1
NCI-H23 lung
  GI50: 5.44 µM
  TGI: 46.2 µM
IGROV1 ovarian
  GI50: 3.01 µM
  TGI: 18.1 µM
NCI-H522 lung
  GI50: 3.11 µM
  TGI: 9.8 µM
HT29 colon
  GI50: 4.29 µM
  TGI: 20 µM
COLO 205 colon
  GI50: 7.65 µM
  TGI: 20.9 µM
U251 CNS
  GI50: 3.66 µM
  TGI: 18.8 µM
MCF7 breast
  GI50: 3.54 µM
  TGI: 28.5 µM
UACC-257 melanoma
  GI50: 5.69 µM
  TGI: 47.3 µM
SNB-19 CNS
  GI50: 4.58 µM
  TGI: > 100 µM
NCI-H460 lung
  GI50: 6 µM
  TGI: 27.7 µM

## O=C(CCN1CCOCC1)Nc1cccc(-n2cc(-c3ccncc3)c(-c3ccc(Cl)c(O)c3)n2)c1
NCI-H23 lung
  GI50: 3.04 µM
  TGI: 18.6 µM
IGROV1 ovarian
  GI50: 3.52 µM
  TGI: 21.5 µM
NCI-H522 lung
  GI50: 0.448 µM
  TGI: 5.4 µM
HT29 colon
  GI50: 1.9 µM
  TGI: 11 µM
COLO 205 colon
  GI50: 1.66 µM
  TGI: 4.27 µM
U251 CNS
  GI50: 3.32 µM
  TGI: 12.8 µM
MCF7 breast
  GI50: 0.634 µM
  TGI: 11.9 µM
UACC-257 melanoma
  GI50: 1.9 µM
  TGI: 4.42 µM
SNB-19 CNS
  GI50: 4.87 µM
  TGI: 22.6 µM
NCI-H460 lung
  GI50: 2.79 µM
  TGI: 12.4 µM
